Data set [1] concerns the target T1, D1 receptor (Rattus norvegicus, UniProt P18901). The experiment in a line: biochemical. The following applies: [3H]-SCH23390; rat striatal membranes; Table 2; read-out: Binding D1 rat striatum Ki. On the procedure: (§1) The tissues were homogenized in 50 mM Tris/HCl buffer, pH 7.4 (1:100 weight/volume).
(§2) The homogenate was centrifuged and the pellet was resuspended, centrifuged again and resuspended in 50 mM Tris/HCl buffer pH 7.4 containing 120 mM NaCl, 5mM KCl, 2mM CaCl2 and 1 mM MgCl2.

The target in data set [2] is T2, D2 receptor (Rattus norvegicus, UniProt P61169). Description: biochemical. As to conditions: [3H]-spiperone; rat striatal membranes; Table 2; read-out: Binding D2 rat striatum Ki. On the procedure:
as §1, §2
The standard incubation conditions (volume 1 ml) for the assay in which [^3 H]-SCH23390 was used were as follows: 50 mM Tris/HCl buffer (pH 7.4), 0.2 nM [^3 H]-SCH23390, a membrane preparation (3 mg/ml corresponding to 130-150 μg proteins/ml), incubation temperature 37° C. and incubation time 15 minutes. The standard incubation conditions (volume 2 ml) for the assay in which [^3 H]-spiperone was used were as follows: 50 mM Tris/HCl buffer (pH 7.4), 0.2 nM [^3 H]-spiperone, a membrane preparation (3 mg/ml corresponding to 130-150 μg proteins/ml), incubation temperature 37° C. and incubation time 15 minutes.

A further data set has as its target T3, DA2 (Oryctolagus cuniculus, UniProt G1T1Q0).
T3 construct: Transversal sections (2-3 mm) of rabbit ear artery were suspended in isolated organ baths; from tissue; host or cells: rabbit ear artery (transversal sections)
The experiment in a line: DA2-agonist activity on electrically stimulated rabbit ear artery. As to conditions: inhibition of contraction induced by electric stimulation; for EC50: read-out: DA2 rabbit ear artery pD2 (-log EC50) (converted).

For the next data set, the system named is SHR rats. Description: In vivo antihypertensive activity, systolic blood pressure by tail cuff in conscious SHR rats. Also on record: species or system rat (SHR). On the procedure:
Male SHR rats, 3-4 months old, fasted 16 hours before the experiment were used. Systolic blood pressure (SBP) and heart rate (HR) were recorded by tail cuff method in conscious animals by means of a BP Recorder (W+W Basile, Italy). Before every pressure determination animals were maintained at 37° C. for 10 minutes.
SBP and HR values were recorded before and at various times up to seven hours after treatment with the tested compounds.
The compounds were administered orally by gavage, in a volume of 10 ml/kg, at doses between 10 and 160 mg/kg. For the administration, the compounds were suspended in carboxymethylcellulose (CMC) 0.5% in water and additioned with Tween 80 (0.3 ml/10 ml of CMC).
The obtained results, expressed as ED30mmHg (mg/kg p.o.) that is the dose causing a decrease of 30 mmHg from the basal value of SBP (about 15% decrease) are the following: […]

Data set [3] addresses T1, D1 receptor. Description: Receptor binding, D1 receptor, [3H]-SCH23390, rat striatal membranes (part A). Also on record: membranes from striatal tissues were prepared; from tissue; host or cells: rat striatum (membranes); species or system rat (Sprague-Dawley). As to conditions: for Ki: [3H]-SCH23390, rat striatal membranes, Table 1, read-out: Affinity Ki for D1 receptor.

The target of data set [4] is T2, D2 receptor. The experiment in a line: Receptor binding, D2 receptor, [3H]-domperidone, rat striatal membranes (part A). Set-up: membranes from striatal tissues were prepared; from tissue; host or cells: rat striatum (membranes); species or system rat (Sprague-Dawley). As to conditions: for Ki: [3H]-domperidone, rat striatal membranes, Table 1, read-out: Affinity Ki for D2 receptor. As for the experimental part:
as §1, §2
For D2 -receptor binding studies [^3 H]-domperidone (0.3 nM) was incubated in a volume of 1000 μl containing buffer and a membrane preparation as above described. In addition bovine serum albumine (BSA) (0.01%) was added. The mixture was incubated at 37° C. for 30 minutes for each concentration of the tested compounds.

For data set [5] the following is noted: in words; cited from earlier work.
In a further data set the test system is dopaminergic receptors. As to conditions: in words; cited from earlier work.

“Also recorded” adds a separate entry of the source. Structures can show the parent of a compound that is named as a salt.

T3 sequence (G1T1Q0 1-443): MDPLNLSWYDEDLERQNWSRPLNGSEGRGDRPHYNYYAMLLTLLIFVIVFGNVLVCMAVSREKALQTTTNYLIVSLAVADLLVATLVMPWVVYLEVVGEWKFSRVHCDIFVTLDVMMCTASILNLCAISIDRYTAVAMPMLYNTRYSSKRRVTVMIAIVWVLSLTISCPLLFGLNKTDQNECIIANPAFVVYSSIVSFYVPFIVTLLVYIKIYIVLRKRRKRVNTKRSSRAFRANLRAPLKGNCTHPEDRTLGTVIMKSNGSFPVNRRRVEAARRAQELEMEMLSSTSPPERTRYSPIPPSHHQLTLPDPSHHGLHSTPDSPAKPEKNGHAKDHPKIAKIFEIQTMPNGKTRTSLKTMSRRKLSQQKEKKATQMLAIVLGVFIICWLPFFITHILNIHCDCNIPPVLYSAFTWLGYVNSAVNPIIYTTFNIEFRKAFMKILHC
T1 sequence (P18901 whole entry): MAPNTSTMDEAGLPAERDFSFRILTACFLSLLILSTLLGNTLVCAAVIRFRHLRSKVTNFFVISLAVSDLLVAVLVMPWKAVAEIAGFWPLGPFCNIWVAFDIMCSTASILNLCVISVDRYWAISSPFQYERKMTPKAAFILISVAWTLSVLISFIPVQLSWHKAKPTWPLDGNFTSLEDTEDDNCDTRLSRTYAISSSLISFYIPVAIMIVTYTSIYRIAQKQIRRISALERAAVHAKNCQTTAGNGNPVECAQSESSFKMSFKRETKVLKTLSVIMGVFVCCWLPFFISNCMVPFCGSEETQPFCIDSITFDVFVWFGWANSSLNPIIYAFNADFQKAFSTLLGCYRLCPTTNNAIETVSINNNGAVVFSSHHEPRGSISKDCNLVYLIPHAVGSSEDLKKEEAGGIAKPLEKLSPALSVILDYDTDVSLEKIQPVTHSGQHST
T2 sequence (P61169 whole entry): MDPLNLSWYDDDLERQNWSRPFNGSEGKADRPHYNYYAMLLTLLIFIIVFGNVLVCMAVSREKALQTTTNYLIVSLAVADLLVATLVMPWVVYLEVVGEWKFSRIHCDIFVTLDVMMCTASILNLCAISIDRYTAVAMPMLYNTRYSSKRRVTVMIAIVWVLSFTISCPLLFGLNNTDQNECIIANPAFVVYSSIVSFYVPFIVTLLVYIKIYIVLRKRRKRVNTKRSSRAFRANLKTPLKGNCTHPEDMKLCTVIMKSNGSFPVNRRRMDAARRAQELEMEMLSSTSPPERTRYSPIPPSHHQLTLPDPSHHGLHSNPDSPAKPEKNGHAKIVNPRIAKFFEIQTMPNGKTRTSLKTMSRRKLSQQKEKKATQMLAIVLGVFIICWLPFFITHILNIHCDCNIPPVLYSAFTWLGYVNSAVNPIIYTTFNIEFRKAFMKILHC
Experimental for DA2: DA2 -agonist activity was evaluated as follows. Transversal sections (2-3 mm) of rabbit ear artery were suspended in isolated organ baths containing Krebs-Henseleit solution added with corticosterone (30 μM), desipramine (0.1 μM) and EDTA (10 μM).
The preparation, subjected to a traction of 1 g and to an electric stimulation with field pulses every 5 minutes (10 Hz, 1 msec., 30-60 V, 500 msec. duration) were left stabilize for about 2 hours.
Each preparation was submitted to three increasing concentrations allowing the recovery of the basal conditions before the subsequent administration.

On to `CCCN(CCCCCCNCCOc1ccccc1OC)[C@H]1CCc2c(ccc(O)c2O)C1` [Compound 1, S-(-)-N-propyl-N-[6-(2-(2-methoxyphenoxy)ethylamino]hexyl]-5,6-dihydroxy-1,2,3,4-tetrahydro-2-naphthylamine dihydrchloride], for which the Ki on D1 receptor [1] worked out at 90 nM; at D2 receptor [2] it was 0.5 nM; at D1 receptor [3], 195 nM; on D2 receptor [4], 4 nM. Besides, the EC50 on DA2 is 1.07 nM. In addition, the ED (30 mmHg) in the data set with SHR rats (Rattus norvegicus, oral gavage, about 15% decrease of SBP, read-out: ED30mmHg, dose causing a decrease of 30 mmHg from the basal value of SBP) was determined as 22.9 mg/kg. Besides, the “Duration of the antihypertensive effect” value in the data set with SHR rats (oral) is on record as “about 4 hours”. Further, the “Potency on D1 receptors, times more potent than dopamine and dopexamine” value on D1 receptor [3] (vs dopamine and dopexamine) is listed as “about 10 times”. Further, the “Potency on D2 receptors, times more potent than dopamine and dopexamine” value at D2 receptor [4] (vs dopamine and dopexamine) is given as “about 100 times”.
For the molecule `CCCN(CCCCCCNCCOc1ccccc1OC)[C@@H]1CCc2cc(O)c(O)cc2C1` [Compound 2, (R)-N-propyl-N-[6-[2-(2-methoxyphenoxy)ethylamino]hexyl]-6,7-dihydroxyl-1,2,3,4-tetrahydro-2-naphthylamino dihydrochloride], the Ki at D1 receptor [1] stood at 315 nM; at D2 receptor [2] it was 8.4 nM. Also, at DA2, the concentration for a half-maximal effect (EC50) was 4.37 nM.
Taken in the same sequence, the figures for `CCCCN(CCCCCCNCCOc1ccccc1OC)[C@H]1CCc2c(ccc(O)c2O)C1` [Compound 3, (S)-N-butyl-N-[6-[2-(2-methoxyphenoxy)ethylamino]hexyl]-5,6-dihydroxy-1,2,3,4-tetrahydro-2-naphthylamine dihydrochloride] were 560 nM, 86 nM and 29.5 nM.
`CCCCN(CCCCCCNCCOc1ccccc1Cl)[C@H]1CCc2c(ccc(O)c2O)C1` [Compound 4, (S)-N-butyl-N-[6-[2-2-(chlorophenoxy)ethylamino]hexyl]-5,6-dihydroxy-1,2,3,4-tetrahydro-2-naphthylamine dihydrochloride]: the Ki at D1 receptor [1] was 700 nM; on D2 receptor [2] it was 80 nM. The EC50 at DA2 is 513 nM.
Regarding `CCCN(CCCCCCNCCOc1ccc(C)cc1Cl)[C@H]1CCc2c(ccc(O)c2O)C1` [Compound 5, (S)-N-propyl-N-[6-[2-[(2-chloro-4-methyl)phenoxy]ethylamino]-hexyl]-5,6-dihydroxy-1,2,3,4-tetrahydro-2-naphthylamine dihydrochloride], the Ki is 120 nM at D1 receptor [1] and 5 nM on D2 receptor [2]. At DA2, the EC50 was 6.92 nM.
For `CCCN(CCCNCCOc1ccccc1OC)[C@H]1CCc2c(ccc(O)c2O)C1` [Compound 7, (S)-N-propyl-N-[3-[2-[(2-methoxyphenoxy)ethylamino]propyl]-5,6-dihydroxy-1,2,3,4-tetrahydro-2-naphthylaminedihydrochloride], in that order: 1100 nM, 1.1 nM and 2.14 nM.
Taken in the same sequence, the figures for `CCCN(CCCNCCOc1ccccc1Cl)[C@@H]1CCc2cc(O)c(O)cc2C1` [Compound 8, (R)-N-propyl-N-[3-[2-[(2-chlorophenoxy)ethylamino]propyl]-6,7-dihydroxy-1,2,3,4-tetrahydro-2-naphthylaminedihydrochloride] were 2650 nM, 16 nM and 44.7 nM.
For `CCCCN(CCCNCCOc1ccc(C)cc1OC)[C@H]1CCc2c(ccc(O)c2O)C1` [Compound 9, (S)-N-butyl-N-[3-[2-[(2-methoxy-4-methyl)phenoxy]ethylamino]propyl]-5,6-dihydroxyl-1,2,3,4-teyrahydro-2-naphthylamine dihydrochloride], in that order: 22000 nM, 190 nM and 1050 nM.
For `CCCN(CCCCCCN(C)CCOc1ccccc1OC)[C@H]1CCc2c(ccc(O)c2O)C1` [Compound 10, (S)-N-[2-(5,6-dihydroxy-1,2,3,4-tetrahydro)naphthyl]-N-propyl-N'-methyl-N'-[2-(2-methoxyphenoxy)ethyl]-1,6-hexanediamine dihychloride], the figures for the Ki at D1 receptor [1] and on D2 receptor [2] were 410 nM and 5.5 nM, respectively. For the same molecule, on DA2, the EC50 was 3.39 nM.
For `CCCCN(CCCCCCN(C)CCOc1ccccc1OC)[C@@H]1CCc2cc(O)c(O)cc2C1` [Compound 11, (R)-N-butyl-N-[2-(6,7-dihydroxy-1,2,3,4-tetrahydro)naphthyl]-N'-methyl-N'-[2-(2-methoxyphenoxy)ethyl]-1,6-hexanediamine dihydrochloride], in that order: 11700 nM, 630 nM and 1350 nM.
Turning to `CCCN(CCCCCCN(C)CCOc1ccc(C)cc1Cl)[C@H]1CCc2c(ccc(O)c2O)C1` [Compound 12, (S)-N-[2-(5,6-dihydroxy-1,2,3,4-tetrahydro)naphthyl]-N-propyl-N'-methyl-N'-[2-[(2-chloro-4-methyl]phenoxyl]ethyl]-1,6-hexanediamine dihydrochloride], the figures for the Ki on D1 receptor [1] and on D2 receptor [2] were 180 nM and 8.3 nM, respectively. Also, the EC50 on DA2 was 457 nM.
Taken in the same sequence, the figures for `CCCN(CCCN(C)CCOc1ccccc1OC)[C@H]1CCc2c(ccc(O)c2O)C1` [Compound 13, (S)-N-propyl-N-[2-(5,6-dihydroxy-1,2,3,4-tetrahydro)naphthyl]-N'-methyl-N'-[2-(2-methoxyphenoxy)ethyl]-1,3-propanediamine dihydrochloride] were 3600 nM, 9.8 nM and 4.07 nM.
Taken in the same sequence, the figures for `CCCCN(CCCN(C)CCOc1ccc(C)cc1Cl)[C@@H]1CCc2cc(O)c(O)cc2C1` [Compound 14, (R)-N-butyl-N-[2-(6.,7-dihydroxy-l,2,3,4-tetrahydro)naphthyl]-N'-methyl-N'-[2-[(2-chloro-4-methyl)phenoxy]ethyl]-1.3-propanediamine dihydrochloride] were 2800 nM, 260 nM and 6030 nM.
For `NCCc1ccc(O)c(O)c1` [Dopamine, dopamine], the “DA2 rabbit ear artery pD2 (-log EC50)” value on DA2 is 7.40. Further, in data set [5], the “Oral absorption (literature)” value is “lack of absorption by opal route; also recorded: not absorbed when administered by oral route”.
As for `Oc1ccc(CCNCCCCCCNCCc2ccccc2)cc1O` [Dopexamine, dopexamine, reference compound], the Ki on D1 receptor [1] was found to be 3200 nM; at D2 receptor [2], 1700 nM; on D1 receptor [3], 2230 nM; on D2 receptor [4] it was 145 nM. For the same molecule, the EC50 at DA2 is 447 nM. Also, the “Oral absorption (literature)” value in data set [5] is “not absorbed when administered by oral route”. For the same molecule, the “Agonist activity on dopaminergic receptors relative to dopamine” value in the data set with dopaminergic receptors is “less active than dopamine”.

A word on the Ki: it is a measure of affinity in units of concentration, obtained from inhibition or displacement. For orientation: EC50 means the concentration at which the effect is half-maximal.

The record behind these values is US5407956A, “2-amino-1,2,3,4-tetrahydronaphthalene derivatives active on the cardiovascular system, processes for their preparation and pharmaceutical compositions containing them” (Zambon Group S.p.A., priority 1992, dated 1995).
